The values below come from paper PMC9234956 (Journal of Medicinal Chemistry, 2022).

Positions count from the first letter of the chain named. Counter-ions that a name gives are not always drawn. Like-named read-outs stand apart in the source and are kept apart here. Marks after values point to notes of the source that are not given here. Some results are limits rather than exact numbers.

As a reminder, the CLint scaled is the rate of metabolic loss divided by the concentration. As a reminder, the clearance is the rate of elimination divided by the concentration. The term half-life denotes how long it takes for the measured level to halve.

For data set [1] the following is noted: monkey, 5.0 mg/kg po, Tris salt, fasted.
The conditions of data set [2]: rat, Tris salt, fasted.
In data set [3] the target is T1, human GLP-1R (Homo sapiens, UniProt P43220). The data set is described as follows: βArr2 recruitment, DiscoverX PathHunter cell line, buffer with 0.1% BSA. The data set is classed as cell-based. Particulars: for βArr2 slope: buffer containing 0.1% BSA.
T1 sequence (P43220 24-463): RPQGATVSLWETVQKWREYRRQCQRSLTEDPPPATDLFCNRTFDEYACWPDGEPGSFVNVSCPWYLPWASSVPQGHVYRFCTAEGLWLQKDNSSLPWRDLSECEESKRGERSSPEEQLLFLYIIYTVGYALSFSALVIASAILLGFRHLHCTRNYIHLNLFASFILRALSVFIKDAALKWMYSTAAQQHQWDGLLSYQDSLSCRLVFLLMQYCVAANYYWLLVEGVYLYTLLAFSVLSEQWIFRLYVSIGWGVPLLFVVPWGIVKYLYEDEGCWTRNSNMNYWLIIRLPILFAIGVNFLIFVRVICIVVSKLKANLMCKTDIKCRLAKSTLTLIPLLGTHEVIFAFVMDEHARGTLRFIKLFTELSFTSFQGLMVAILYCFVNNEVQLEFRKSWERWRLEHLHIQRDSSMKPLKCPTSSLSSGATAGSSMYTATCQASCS
In data set [4] the target is T1, human GLP-1R. The data set is described as follows: βArr1 recruitment, DiscoverX PathHunter cell line, buffer with 0.1% BSA. In kind it is cell-based. Particulars: buffer containing 0.1% BSA.
In data set [5] the target is T1, human GLP-1R. As to conditions: for SA cAMP – BETP slope: slope of concentration-response curve.
The target in data set [6] is T1, human GLP-1R. The data set is described as follows: cAMP assay in candidate selection. As to conditions: for CS cAMP slope: slope of concentration-response curve. Background: Cyclic AMP is a second messenger, typically raised through Gs and lowered through Gi signalling.
In data set [7] the target is T1, human GLP-1R.
Data set [8] concerns the target T1, human GLP-1R. The data set is described as follows: BETP-sensitized cAMP screening assay. In kind it is cell-based. As to conditions: for SA cAMP + BETP slope: slope of concentration-response curve.
Data set [9] can be described thus: Intrinsic metabolic clearance in human liver microsomes. In kind it is in vitro ADME. Particulars: scaled from in vitro half-life; for CLint scaled: human, liver microsomes, HLM CLint. For orientation: Microsomes from liver hold many membrane-bound enzymes, among them those of drug oxidation.
Data set [10] is described as follows: Intrinsic metabolic clearance in cryopreserved human hepatocytes. The data set is classed as in vitro ADME.
The target of data set [11] is T1, human GLP-1R. As to conditions: assay medium.
Data set [12] deals with cynomolgus monkeys. The data set is described as follows: Cynomolgus monkey food intake. In kind it is in vivo. As to conditions: 2.9 mg/kg subcutaneous once daily for 2 days.
Another data set deals with T2, rabbit GLP-1R (Oryctolagus cuniculus, UniProt G1SGD4).
T2 sequence (G1SGD4 24-462): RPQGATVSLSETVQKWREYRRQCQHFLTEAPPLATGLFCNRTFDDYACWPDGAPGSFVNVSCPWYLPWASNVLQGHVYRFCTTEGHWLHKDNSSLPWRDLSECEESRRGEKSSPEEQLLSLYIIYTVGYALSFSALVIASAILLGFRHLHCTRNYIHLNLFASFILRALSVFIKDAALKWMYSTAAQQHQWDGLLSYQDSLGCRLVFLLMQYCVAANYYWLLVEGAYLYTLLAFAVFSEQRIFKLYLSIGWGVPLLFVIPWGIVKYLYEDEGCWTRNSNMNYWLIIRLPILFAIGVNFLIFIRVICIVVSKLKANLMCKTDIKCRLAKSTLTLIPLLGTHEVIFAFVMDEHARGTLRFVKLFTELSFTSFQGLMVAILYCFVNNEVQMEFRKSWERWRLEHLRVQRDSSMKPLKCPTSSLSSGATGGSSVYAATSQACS
The data set is described as follows: cAMP accumulation, CHO cells expressing rabbit GLP-1R. In kind it is cell-based.

The target in data set [13] is T1, human GLP-1R. This is another data set of the same source.
Data set [14] can be described thus: in vivo. As to conditions: male, Wistar-Han, rat, plasma, iv, 1 mg/kg.
For data set [15] the following is noted: single oral doses 3–300 mg, fasted.
In a further data set the target is T3, mouse GLP-1R S33W (Mus musculus, UniProt O35659, S33W).
T3 sequence (O35659 22-463 S33W): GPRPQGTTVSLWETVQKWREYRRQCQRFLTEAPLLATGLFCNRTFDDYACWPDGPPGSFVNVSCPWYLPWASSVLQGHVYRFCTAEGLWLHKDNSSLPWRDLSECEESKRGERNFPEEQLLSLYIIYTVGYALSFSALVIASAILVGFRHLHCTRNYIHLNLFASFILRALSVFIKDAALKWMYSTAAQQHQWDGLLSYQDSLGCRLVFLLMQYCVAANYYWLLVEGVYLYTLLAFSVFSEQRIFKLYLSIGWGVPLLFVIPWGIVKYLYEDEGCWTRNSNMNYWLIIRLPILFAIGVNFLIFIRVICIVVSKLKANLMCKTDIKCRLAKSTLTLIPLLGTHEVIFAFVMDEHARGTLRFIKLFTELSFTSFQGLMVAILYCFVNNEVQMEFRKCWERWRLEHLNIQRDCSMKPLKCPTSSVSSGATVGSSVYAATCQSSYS

The next data set has as its target human GLP-1R W33S (Homo sapiens, UniProt P43220, W33S). The data set is described as follows: cAMP, functional assessment of GLP-1R mutants: human W33S.
A short description of data set [16]: in vivo. Particulars: male, cynomolgus monkey, plasma, iv, 1 mg/kg.
For a further data set, the target named is T4, rat GLP-1R (Rattus norvegicus, UniProt P32301).
T4 sequence (P32301 22-463): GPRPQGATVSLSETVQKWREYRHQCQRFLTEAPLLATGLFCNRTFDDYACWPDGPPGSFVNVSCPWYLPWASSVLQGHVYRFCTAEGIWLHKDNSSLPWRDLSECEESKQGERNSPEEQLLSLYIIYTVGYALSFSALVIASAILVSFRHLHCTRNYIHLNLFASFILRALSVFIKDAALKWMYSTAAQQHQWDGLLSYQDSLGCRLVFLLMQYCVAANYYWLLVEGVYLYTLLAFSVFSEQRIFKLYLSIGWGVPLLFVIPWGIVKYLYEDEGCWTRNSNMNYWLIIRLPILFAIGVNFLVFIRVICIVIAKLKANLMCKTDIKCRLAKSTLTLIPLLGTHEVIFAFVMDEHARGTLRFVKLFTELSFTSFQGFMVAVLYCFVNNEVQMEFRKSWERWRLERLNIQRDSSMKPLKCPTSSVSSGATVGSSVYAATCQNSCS
The data set is described as follows: cAMP accumulation, CHO cells expressing rat GLP-1R. In kind it is cell-based.

In data set [17] the target is T1, human GLP-1R. Particulars: relative to liraglutide; HEK 293 FAP-GLP1R.
The next data set deals with T5, mouse GLP-1R (Mus musculus, UniProt O35659).
T5 sequence (O35659 22-463): T3 sequence (O35659 22-463 S33W) with W12S
The data set is described as follows: cAMP accumulation, CHO cells expressing mouse GLP-1R. In kind it is cell-based.

A further data set addresses GFP-tagged human GLP-1R (Homo sapiens, UniProt P43220). The data set is described as follows: Confocal microscopy of GFP-tagged human GLP-1R in HEK 293 cells. In kind it is cell-based. Particulars: stimulation for 30 min; reversible following a 2 h washout.
Data set [18] concerns healthy adult participants. The data set is described as follows: Phase 1 first-in-human single ascending dose study: safety.
Data set [19] relates to cynomolgus monkeys. The data set is described as follows: Intravenous glucose tolerance test. Particulars: iv infusion.

Sequence of human GLP-1R W33S (P43220 24-463 W33S): as the sequence (P43220 24-463) above, with W10S counted along it
Sequence of GFP-tagged human GLP-1R (P43220 24-463): as the sequence (P43220 24-463) above

For the compound `N#Cc1ccc(COc2cccc(C3CCN(Cc4nc5ccc(C(=O)O)cc5n4C[C@@H]4CCO4)CC3)n2)c(F)c1` [Danuglipron, Tris salt, (S)-2-[(4-{6-[(4-Cyano-2-fluorobenzyl)oxy]pyridin-2-yl}piperidin-1-yl)methyl]-1-(oxetan-2-ylmethyl)-1H-benzo[d]imidazole-6-carboxylic Acid], the “oral F” value is 5.0 (4.0, 6.0) % in data set [1]; 11 (10, 12) % in data set [2] (5.0 mg/kg po); 39 (37, 44) % in data set [2] (100 mg/kg po).
`CCn1cncc1Cn1c(CN2CCC(c3cccc(OCc4ccc(F)cc4F)n3)CC2)nc2ccc(C(=O)O)cc21` [PF-06883365] came in with a βArr2 slope at human GLP-1R [3] of 0.79 ± 0.12. Also, the βArr1 slope at human GLP-1R [4] was found to be 0.94 ± 0.013. In addition, the “SA cAMP – BETP slope” value at human GLP-1R [5] worked out at 0.98 ± 0.12. For the same compound, the “CS cAMP slope” value on human GLP-1R [6] was found to be 1.1 ± 0.19. On human GLP-1R [7], the “[3H]PF-06883365 binding slope” value is recorded as 1.0 ± 0.15.
For the compound `Cn1c(CN2CCC(c3nc(OCc4ccc(Cl)cc4F)ncc3F)CC2)nc2ccccc21` [compound 2], at human GLP-1R [8], the “SA cAMP + BETP slope” value is 1.3 ± 0.75. For the same compound, the CLint scaled in data set [9] was more than 150 mL/min/kg. On human GLP-1R [5] (without BETP), the “GLP-1R agonist activity in the unpotentiated cAMP SA” value is “inactive”. In addition, in data set [10], the “hHEP CLint” value is given as 48 (n = 1) μL/min/million.
Regarding `Cn1c(CN2CCC(c3cccc(OCc4ccc(Cl)cc4F)n3)CC2)nc2ccncc21` [compound 3], on human GLP-1R [8] (SA + BETP EC50), the “fold more potent than HTS hit 2” value is more than 100 fold. For the same compound, the “SA cAMP + BETP slope” value at human GLP-1R [8] was determined as 0.89 ± 0.17. In addition, in data set [9], the CLint scaled worked out at 130 mL/min/kg and the “HLM CLint” value is recorded as 140 ± 46 (n = 3) mL/min/kg. In addition, on human GLP-1R [11], the “βArr2 + BETP slope” value is 0.97 ± 0.10. For the same compound, the “SA cAMP – BETP slope” value at human GLP-1R [5] was 1.2 ± 0.26. Further, the “hHEP CLint” value in data set [10] is 55 (n = 1) μL/min/million.
Consider `Cn1c(CN2CCC(c3cccc(OCc4ccc(Cl)cc4F)n3)CC2)nc2nccc(NCC(=O)O)c21` [compound 4], for which the “SA cAMP + BETP slope” value on human GLP-1R [8] is 0.76 ± 0.058. Also, in data set [9], the CLint scaled is less than 11 mL/min/kg. Further, the “βArr2 + BETP slope” value on human GLP-1R [11] was 0.93 (0.98, 0.88). In addition, the “SA cAMP – BETP slope” value on human GLP-1R [5] was determined as 0.75 ± 0.18.
With `Cn1c(CN2CCC(c3cccc(OCc4ccc(Cl)cc4F)n3)CC2)nc2ccc(C(=O)O)nc21` [compound 5], the “SA cAMP + BETP slope” value on human GLP-1R [8] came to 0.97 ± 0.15. The compound further showed a CLint scaled in data set [9] of 29 ± 4.4 mL/min/kg. For the same compound, the “βArr2 + BETP slope” value at human GLP-1R [11] is 0.69 ± 0.13. Further, on human GLP-1R [5], the “SA cAMP – BETP slope” value is 1.1 ± 0.17. Besides, at human GLP-1R [6], the “agonist character in CS cAMP assay” value is on record as “full agonist” and the “CS cAMP slope” value is listed as 1 ± 0.14. For the same compound, on human GLP-1R [6] (CS vs SA cAMP EC50), the “fold less potent in CS cell line than in SA” value was approximately 20 fold.
With `N#Cc1ccc(COc2cccc(C3CCN(Cc4nc5ccc(C(=O)O)cc5n4C[C@@H]4CCO4)CC3)n2)c(F)c1` [danuglipron, (S)-2-[(4-{6-[(4-Cyano-2-fluorobenzyl)oxy]pyridin-2-yl}piperidin-1-yl)methyl]-1-(oxetan-2-ylmethyl)-1H-benzo[d]imidazole-6-carboxylic Acid], in the data set with cynomolgus monkeys [12], the “food intake versus vehicle” value is “inhibited food intake”. The “effect on cAMP levels” value at rabbit GLP-1R, on rat GLP-1R and on mouse GLP-1R was “did not increase cAMP levels” throughout. Also, at human GLP-1R [3], the “agonist character in βArr2 recruitment” value is given as “partial agonist”. This compound showed a βArr2 slope on human GLP-1R [3] of 1 ± 0.18. The “[125I]GLP-1 binding slope” value at human GLP-1R [13] turned out to be 0.70 ± 0.099. In addition, the clearance at 24 h turned out to be 57.3 ± 8.68 mL/min/kg in “in vivo [14]” and 13.8 mL/min/kg in the data set “in vivo [16]”. Besides, the results for the half-life in “in vivo [14]” and in the data set “in vivo [16]” were 1.1 h and 1.9 h, respectively. The “SA cAMP + BETP slope” value on human GLP-1R [8] turned out to be 0.98 ± 0.029. The “increase of plasma exposure (Cmax, AUCinf) with dose” value in data set [15] is given as “approximately dose-proportional”. Also, the figures for the “cAMP signaling at mouse GLP-1R S33W” value at mouse GLP-1R S33W and on mouse GLP-1R S33W (listed as Danuglipron) were “increased the level of accumulation of cAMP” and “restored”, respectively. Besides, the figures for the “cAMP signaling at human GLP-1R W33S” value on human GLP-1R W33S and on human GLP-1R W33S (listed as Danuglipron) were “failed to induce signaling” and “negated”, respectively. The βArr1 slope at human GLP-1R [4] stood at 0.90 ± 0.067. In addition, at human GLP-1R [5], the “SA cAMP – BETP slope” value is 1.1 ± 0.11. Moreover, on human GLP-1R [17], the “Bias factor (toward cAMP), cAMP vs Internalization” value stood at 3.6. Moreover, the “agonist character in CS cAMP assay” value on human GLP-1R [6] was “full agonist”. Besides, the “CS cAMP slope” value on human GLP-1R [6] is 1.1 ± 0.14. Besides, the “intracellular accumulation of GFP-GLP-1R” value at GFP-tagged human GLP-1R is “marked intracellular accumulation of the GFP-GLP-1R”. The “post-dose fasting serum glucose levels” value in data set [18] (after single doses, healthy participants) is “remained within the normal reference range”. Further, the “tolerability after po administration under fasted conditions” value in [18] (single doses 3 to 300 mg, healthy adults) is recorded as “generally well tolerated”. Besides, the “insulin secretion during IVGTT” value is reported as “increase in the rate of insulin secretion” in the data set on cynomolgus monkeys [19] and “enhanced insulin secretion” in the data set with cynomolgus monkeys [19] (listed as Danuglipron). Besides, in the data set on cynomolgus monkeys [19], the “rate of glucose disappearance (K value) during IVGTT” value is given as “increased the rate of glucose disappearance”. Besides, the “[3H]PF-06883365 binding slope” value on human GLP-1R [7] is 1 ^b.
